Here are results for 22 molecules from patent publication US8921373B2, “Compounds having TRPV1 antagonistic activity and uses thereof” (Shionogi & Co., Ltd., priority 2010, dated 2014).

The target of assay [1] is T1, human recombinant TRPV1 (Homo sapiens (Human), UniProt Q8NER1). The assay can be described thus: TRPV1 Capsaicin-Based Assay (Protocol 2, TRPV1/CHO cells, Fluo-4, FLIPR). It counts as cell-based. Particulars: TRPV1/CHO cells, capsaicin 100 nM final. On the procedure:
(§1) For Protocol 2, a Chinese Hamster Ovary cell line (CHO) that has been engineered to constitutively express human recombinant TRPV1 was used (TRPV1/CHO cells). The TRPV1/CHO cell line was generated as described below.
One day prior to assay, TRPV1/CHO cells were seeded in 96-well clear-bottom black plates (20,000 cells/well) in growth media. On the day of the experiment, the cells were washed with 0.2 mL 1× Hank's Balanced Salt Solution (Life Technologies) containing 1.6 mM CaCl2 and 20 mM HEPES, pH 7.4 (“wash buffer”). Subsequently, the cells were loaded by incubation in 0.1 mL of wash buffer containing Fluo-4 at 3 μM final concentration. After 1 hour, the cells were washed twice with 0.2 mL wash buffer and resuspended in 0.1 mL wash buffer. The plates were then transferred to a Fluorescence Imaging Plate Reader (Molecular Devices). Fluorescence intensity was monitored for 15 seconds to establish a baseline. Subsequently, test compounds diluted in assay buffer (1× Hank's Balanced Salt Solution containing 1 mM CaCl2 and 20 mM HEPES, pH 7.4) containing 1% DMSO were added to the cell plate and fluorescence was monitored for 2 minutes. […] Human TRPV1 was then activated by the addition of 50 μL capsaicin (100 nM final concentration) and plates incubated for an additional 3 min. Data were collected over the entire time course and analyzed using Excel and the curve-fitting formula GraphPad Prism.

For assay [2], the target named is T1, human recombinant TRPV1. The assay can be described thus: TRPV1 pH-Based Assay (Protocol 2, Ca2+ response in TRPV1/CHO cells, Fura-2). It is filed as cell-based. Conditions: TRPV1/CHO cells, pH 5.0-5.1; read-out: IC50 value by the pH-Based Assay. On the procedure:
as §1
TRPV1/CHO cells were seeded in the 96-well clear-bottom black-wall plate (Nunc) at densities of 1-2×10^4 cells/well and grown in 100 μL of culture medium (alpha-MEM supplemented with 10% FBS, 20 mM HEPES, 1 mg/mL geneticin and 1% antibiotic-antimycotic mixed stock solution) for 1-2 days before the experiment.
(2) The 96-well plate was incubated at 37° C. for 45 min.
(3) The loading buffer was removed from each well. […] The wells were then refilled with 80 μL of measuring buffer.
(4) After an incubation at 4° C. for 15 min, the 96-well plate was transferred to FDSS-3000 (Hamamatsu Photonics, Japan).
(5) The Fura-2 fluorescent intensity was monitored at a wavelength of 340 nm and at 380 nm, respectively, at a rate of 0.5 Hz for a total of 240 seconds. After 16 time points (32 sec) of baseline detection, 20 μL of agonist solution was added to each well. The final volume was 100 μL/well.
(6) Fluorescence intensity ratio refers to the fluorescence intensity at 340 nm over the fluorescence intensity at 380 nm at a particular time point. The baseline was set as the average of the fluorescent intensity ratios for the first 16 time points before the addition of agonist solution. The maximum response was the highest fluorescent intensity ratio during the 60 time points following addition of agonist solution.
(7) Maximal signal ratios from each well were calculated as output data using the FDSS-3000 analysis program. Data were analyzed using Excel (Microsoft) and XLfit (idbs) software.
Two different agonist solutions with different H2SO4 concentrations were used for the pH assay (FIG. 3A). For one half of a 96-well plate one agonist solution was used, for the other half the other agonist solution. The agonist solutions were obtained by diluting sulfuric acid (H2SO4, 1M) with measuring buffer. The concentrations for the two agonist solutions were determined as described above in Section 2 of Protocol 2.
The sulfuric acid concentrations between the two agonist solutions differed by 0.5 mM. […] After 1:4 dilution of the agonist solutions, the final sulfuric acid concentration was 3.2 mM and 3.3 mM, respectively. The resulting pH value for the pH assay was 5.0 to 5.1.
Test compounds were dissolved in DMSO to yield 1 mM stock solutions. […] The thereby-obtained solutions were further diluted in measuring buffer (1:100) as 10× stock serial dilutions with a DMSO concentration of 1%. 10 μL of a 10× stock was added into each well at step 3.3.(4) of Protocol 2.
Steps (1) and (2) of this Assay were the same as steps 2.2.(1) and 2.2.(2) of Protocol 2, respectively.
(3) The cells were washed twice with 150 μL of measuring buffer (mentioned in 2.2.(3) of Protocol 2, no probenecid). The wells were subsequently refilled with 70 μL of measuring buffer.
(4) Either 10 μl of measuring buffer or 10 μL of 10× stock serial dilution of test compound (described in 3.2. above) were applied to each well. Usually, only one test compound was tested per 96-well plate. The number of replicates per 96-well plate for a particular antagonist at a particular concentration was 7×2 since two different sulfuric acid concentrations were used per 96-well plate (N=7×2) (FIG. 3).
Step (5) was the same as 2.2.(4) above.
(6) Fura-2 fluorescent intensity was monitored as described in 2.2.(5) above. After 16 time points of baseline detection, 20 μL of agonist solution (measuring buffer titrated with H2SO4 to yield pH 5.0-5.1 when mixed 1:4 with the measuring buffer containing test compound) was added to each well (final volume 100 μL/well).
Steps (7) and (8) were as described in 2.2.(6) and 2.2.(7) above, respectively.
(1) The pH values of the buffer in the wells of A1→H1 and A7→H7 (longitudinally; FIG. 3) were measured one by one using a portable pH meter.

Setting [3] is: compounds of the invention, read-out: TRPV1 IC50 Potency (Capsaicin-Based Assay), Compound IC50.
The mark [4] stands for this setting: read-out: IC50 value by the Capsaicin-Based Assay.

Molecules are shown by their SMILES. pIC50: −log10 of the molar value.

T1 sequence (Q8NER1 whole entry): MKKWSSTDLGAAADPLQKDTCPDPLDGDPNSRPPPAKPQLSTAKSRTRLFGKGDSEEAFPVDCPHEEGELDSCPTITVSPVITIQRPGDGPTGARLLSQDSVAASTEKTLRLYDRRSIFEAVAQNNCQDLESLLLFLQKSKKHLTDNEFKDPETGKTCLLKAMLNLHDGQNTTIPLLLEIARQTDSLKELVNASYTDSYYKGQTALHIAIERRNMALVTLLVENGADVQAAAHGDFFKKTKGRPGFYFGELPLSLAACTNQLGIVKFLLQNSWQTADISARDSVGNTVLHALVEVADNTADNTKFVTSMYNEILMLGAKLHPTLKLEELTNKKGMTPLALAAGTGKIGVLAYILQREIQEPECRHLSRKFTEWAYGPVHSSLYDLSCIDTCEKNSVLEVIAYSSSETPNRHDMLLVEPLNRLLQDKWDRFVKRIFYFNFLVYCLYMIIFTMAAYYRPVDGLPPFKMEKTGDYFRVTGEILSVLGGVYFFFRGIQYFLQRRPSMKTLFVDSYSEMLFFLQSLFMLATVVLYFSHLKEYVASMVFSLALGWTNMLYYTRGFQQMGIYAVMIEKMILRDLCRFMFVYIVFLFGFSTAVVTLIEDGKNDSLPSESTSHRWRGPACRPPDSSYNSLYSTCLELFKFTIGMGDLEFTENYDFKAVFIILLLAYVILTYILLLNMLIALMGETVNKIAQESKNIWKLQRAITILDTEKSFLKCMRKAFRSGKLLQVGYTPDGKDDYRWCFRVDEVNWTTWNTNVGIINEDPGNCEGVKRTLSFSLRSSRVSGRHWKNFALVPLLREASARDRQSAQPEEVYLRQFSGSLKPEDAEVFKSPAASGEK

In general, pIC50 refers to the negative decadic logarithm of the IC50, by convention in mol/L. Take `O=C(Nc1nc2ccc(F)cc2s1)N1CCC(F)(c2ncc(C[C@H](O)CO)cc2Cl)CC1`: the pIC50 at human recombinant TRPV1 [1] (setting [3]) was 6.94. For the molecule `Cc1cc(NC(=O)N2CC=C(c3ncc(C[C@@H](O)CO)cc3Cl)CC2)ccc1OC(F)(F)F` [AAS, (R)-4-(3-Chloro-5-(2,3-dihydroxypropyl)pyridin-2-yl)-N-(3-methyl-4-(trifluoromethoxy)phenyl)-5,6-dihydropyridine-1(2H)-carboxamide], the pIC50 on human recombinant TRPV1 [1] (setting [4]) and on human recombinant TRPV1 [2] was ≥ 7.30 in each case. `Cc1cc(NC(=O)N2CCC(F)(c3ncc(C[C@@H](O)CO)cc3C)CC2)ccc1C(F)(F)F` [ACE, (R)-4-(5-(2,3-dihydroxypropyl)-3-methylpyridin-2-yl)-4-fluoro-N-(3-methyl-4-(trifluoromethyl)phenyl)piperidine-1-carboxamide]: the pIC50 at human recombinant TRPV1 [1] (setting [4]) and at human recombinant TRPV1 [2] was ≥ 7.30 each time. Consider `Cc1cc(NC(=O)N2CCC(F)(c3ncc(C[C@@H](O)CO)cc3C)CC2)ccc1OC(F)(F)F` [ACF, (R)-4-(5-(2,3-dihydroxypropyl)-3-methylpyridin-2-yl)-4-fluoro-N-(3-methyl-4-(trifluoromethoxy)phenyl)piperidine-1-carboxamide], for which the pIC50 at human recombinant TRPV1 [1] (setting [4]) and at human recombinant TRPV1 [2] was ≥ 7.30 throughout. Turning to `Cc1cc(NC(=O)N2CCC(F)(c3ncc(C[C@@H](O)CO)cc3Cl)CC2)ccc1C(F)(F)F` [ACI, (R)-4-(3-Chloro-5-(2,3-dihydroxypropyl)pyridin-2-yl)-4-fluoro-N-(3-methyl-4-(trifluoromethyl)phenyl)piperidine-1-carboxamide], the negative logarithm of the IC50 (pIC50) at human recombinant TRPV1 [1] (setting [4]) and on human recombinant TRPV1 [2] was ≥ 7.30 each time.

With `Cc1cc(NC(=O)N2CCC(F)(c3ncc(C[C@@H](O)CO)cc3Cl)CC2)ccc1OC(F)(F)F` [ACJ, (R)-4-(3-Chloro-5-(2,3-dihydroxypropyl)pyridin-2-yl)-4-fluoro-N-(3-methyl-4-(trifluoromethoxy)phenyl)piperidine-1-carboxamide], the pIC50 on human recombinant TRPV1 [1] (setting [4]) and at human recombinant TRPV1 [2] was ≥ 7.30 throughout. Turning to `Cc1cc(NC(=O)N2CCC(F)(c3ncc(C[C@H](O)CO)cc3C)CC2)ccc1OC(F)(F)F` [ACM, (S)-4-(5-(2,3-dihydroxypropyl)-3-methylpyridin-2-yl)-4-fluoro-N-(3-methyl-4-(trifluoromethoxy)phenyl)piperidine-1-carboxamide], the pIC50 at human recombinant TRPV1 [1] (setting [4]) and on human recombinant TRPV1 [2] was ≥ 7.30 throughout. `Cc1cc(NC(=O)N2CCC(F)(c3ncc(C[C@H](O)CO)cc3C)CC2)ccc1C(F)(F)F` [ACN, (S)-4-(5-(2,3-dihydroxypropyl)-3-methylpyridin-2-yl)-4-fluoro-N-(3-methyl-4-(trifluoromethyl)phenyl)piperidine-1-carboxamide]: the pIC50 at human recombinant TRPV1 [1] (setting [4]) and at human recombinant TRPV1 [2] was ≥ 7.30 throughout. For `Cc1cc(NC(=O)N2CCC(F)(c3ncc(C[C@@H](O)CO)cc3F)CC2)ccc1C(F)(F)F` [ACO, (R)-4-(5-(2,3-dihydroxypropyl)-3-fluoropyridin-2-yl)-4-fluoro-N-(3-methyl-4-(trifluoromethyl)phenyl)piperidine-1-carboxamide], the pIC50 at human recombinant TRPV1 [1] (setting [4]) and at human recombinant TRPV1 [2] was ≥ 7.30 each time.

With `Cc1cc(NC(=O)N2CCC(F)(c3ncc(C[C@H](O)CO)cc3Cl)CC2)ccc1C(F)(F)F` [ACS, (S)-4-(3-Chloro-5-(2,3-dihydroxypropyl)pyridin-2-yl)-4-fluoro-N-(3-methyl-4-(trifluoromethyl)phenyl)piperidine-1-carboxamide], the negative logarithm of the IC50 (pIC50) on human recombinant TRPV1 [1] (setting [4]) and at human recombinant TRPV1 [2] was ≥ 7.30 in each case.

Regarding `Cc1cc(NC(=O)N2CCC(F)(c3ncc(C[C@H](O)CO)cc3Cl)CC2)ccc1OC(F)(F)F` [ACT, (S)-4-(3-Chloro-5-(2,3-dihydroxypropyl)pyridin-2-yl)-4-fluoro-N-(3-methyl-4-(trifluoromethoxy)phenyl)piperidine-1-carboxamide], the pIC50 on human recombinant TRPV1 [1] (setting [4]) and at human recombinant TRPV1 [2] was ≥ 7.30 each time. Turning to `C[C@@H]1CN(c2ncc(C[C@@H](O)CO)cc2Cl)CCN1C(=O)Nc1nc2ccc(F)cc2s1` [ACU, (R)-4-(3-chloro-5-((R)-2,3-dihydroxypropyl)pyridin-2-yl)-N-(6-fluorobenzo[d]thiazol-2-yl)-2-methylpiperazine-1-carboxamide], the pIC50 at human recombinant TRPV1 [1] (setting [4]) was ≥ 7.30. As for `Cc1cc(C[C@@H](O)CO)cnc1N1CCN(C(=O)Nc2nc3ccc(F)cc3s2)CC1` [ADA, (R)-4-(5-(2,3-dihydroxypropyl)-3-methylpyridin-2-yl)-N-(6-fluorobenzo[d]-thiazol-2-yl)piperazine-1-carboxamide], the pIC50 at human recombinant TRPV1 [1] (setting [4]) and on human recombinant TRPV1 [2] was ≥ 7.30 each time. In the case of `C[C@@H]1CN(c2ncc(C[C@@H](O)CO)cc2F)CCN1C(=O)Nc1nc2ccc(F)cc2s1` [ADH, (R)-4-(5-[(R)-2,3-dihydroxypropyl)-3-fluoropyridin-2-yl)-N-(6-fluorobenzo[d]thiazol-2-yl]-2-methylpiperazine-1-carboxamide], the pIC50 at human recombinant TRPV1 [1] (setting [4]) and on human recombinant TRPV1 [2] was ≥ 7.30 throughout.

`Cc1cc(C[C@@H](O)CO)cnc1N1CCN(C(=O)Nc2nc3ccc(Cl)cc3s2)[C@H](C)C1` [ADJ, (R)-N-(6-chlorobenzo[d]thiazol-2-yl)-4-{5-[(R)-2,3-dihydroxypropyl]-3-methylpyridin-2-yl}-2-methylpiperazine-1-carboxamide]: the pIC50 at human recombinant TRPV1 [1] (setting [4]) and at human recombinant TRPV1 [2] was ≥ 7.30 each time.

Take `C[C@H]1CN(c2ncc(C[C@@H](O)CO)cc2Cl)CCN1C(=O)Nc1nc2ccc(F)cc2s1` [ADY]: the pIC50 on human recombinant TRPV1 [1] (setting [4]) and on human recombinant TRPV1 [2] was ≥ 7.30 each time.

For `Cc1ccc2nc(NC(=O)N3CCN(c4ncc(C[C@@H](O)CO)cc4Cl)C[C@@H]3C)sc2c1` [ADZ], the pIC50 on human recombinant TRPV1 [1] (setting [4]) and at human recombinant TRPV1 [2] was ≥ 7.30 in each case. Consider `C[C@H]1CN(c2ncc(C[C@@H](O)CO)cc2Cl)CCN1C(=O)Nc1nc2ccccc2s1` [AEA], for which the pIC50 at human recombinant TRPV1 [1] (setting [4]) and on human recombinant TRPV1 [2] was ≥ 7.30 in each case.

On to `Cc1cc(NC(=O)N2CCC(F)(c3ncc(C[C@H](O)CO)cc3F)CC2)ccc1OC(F)(F)F` [drawing 496], for which the pIC50 at human recombinant TRPV1 [1] (setting [3]) was 7.34. Take `C[C@@H]1CN(c2ncc(C[C@@H](O)CO)cc2F)CCN1C(=O)Nc1nc2ccc(Cl)cc2s1` [drawing 500]: at human recombinant TRPV1 [1] (setting [3]), the pIC50 is 8.10. As to `Cc1cc(NC(=O)N2CC=C(c3ncc(C[C@@H](O)CO)cc3Cl)CC2)ccc1C(F)(F)F` [drawing 501], the pIC50 at human recombinant TRPV1 [1] (setting [3]) was 7.40. As to `Cc1cc(NC(=O)N2CCC(F)(c3ncccc3F)CC2)ccc1OC(F)(F)F` [reference compound], the pIC50 at human recombinant TRPV1 [1] (comparative compounds, read-out: TRPV1 IC50 Potency (Capsaicin-Based Assay), Comparative compound IC50) was 7.00.
